Source: patent publication US20120196854A1, “PHARMACEUTICAL COMPOSITION COMPRISING AROMATIC HETEROCYCLIC COMPOUND” (Kyowa Hakko Kirin Co., Ltd., priority 2009, published 2012)

Test system: mdx mice
Assay: Myodegeneration in spontaneous muscular dystrophy model (mdx) mice
Assay type: in vivo, mouse
Conditions: in drinking water, about 30 mg/kg
Experimental: mdx Mice (C57BL/10ScSn-Dmd^mdx) were purchased in male and female pairs from Jackson Laboratories, and bred in-house for use. After weaned at 3 weeks old, male mdx mice were selected, which were subjected to the test from 4 weeks old. Compound 133 was dissolved in MEYLON 84 (registered trademark, 8.4% sodium bicarbonate injection, Otsuka) to prepare 12 mL of a 3 mg/mL solution thereof. This was added to and mixed with 188 mL of sterile tap water (final concentration of the compound: 180 μg/mL), and the mixture was administered by unrestricted intake (actual dose of the compound was about 30 mg/kg). […]
As evaluation of the diaphragm muscle, the degenerated and/or necrotic muscle area ratio of the diaphragm was determined. […] The thus prepared specimen was digitally shot at 20-fold magnification using a digital microscope (VHX-1000, KEYENCE, Osaka) and the images were recorded in TIFF format. Using the nature that degenerated and/or necrotic muscle absorbs EB and turns blue (J. Anat., 2002, 200, 69-79), the area of the diaphragm piece and the area of blue region showing the distribution of degenerated and/or necrotic muscle were determined with an image analyzer (LUZEX AP, Nireco, Tokyo). […]
For evaluation of the posterior crural muscle, the degenerated and/or necrotic muscle area ratio of the gastrocnemius muscle was determined. […]

O=C(O)c1cc(-c2ccco2)nc2ccc3nn(-c4ccccc4)nc3c12 [Compound 133, 7-(furan-2-yl)-2-phenyl-2H-[1,2,3]triazolo[4,5-f]quinoline-9-carboxylic acid]
inhibition of degeneration and/or necrosis of the diaphragm: 40%
inhibition of degeneration and/or necrosis of the gastrocnemius muscle: 49%
